In US5948913A, “Hydrate for drug use” (Daiichi Pharmaceutical Co., Ltd., priority 1994, dated 1999):
Counter-ions that a name gives are not always drawn. Like-named read-outs stand apart in the source and are kept apart here.

Experiments:
[1] = Weight / moisture change as a function of humidity; format: physicochemical
Method: On the other hand, when methanol was used as the solvent at the time of crystal precipitation, the thus obtained hydrochloride anhydrate of the compound of formula (1) also contained methanol, but it was able to remove the contained methanol almost completely when the crystals were dried with heating (120° C.) under a reduced pressure for several days or more.
(§1) (FIG. 2). Also, changes in its appearance were hardly found and its changes in the content (determination by HPLC) were not found under dry heating conditions (50° C., tightly sealed in a bottle, 1 month) or wet heating conditions (40° C., 75% humidity, 1 month).
FIG. 1 is a graph showing changes in the weight of 3-[2-[4-(3-chloro-2-methylphenyl)-1-piperazinyl]ethyl]-5,6-dimethoxy-1-(4- imidazolylmethyl)-1H-indazole hydrochloride anhydrate plotted as a function of humidity,
FIG. 2 is a graph showing changes in the weight of the 3.5-hydrate of the present invention plotted as a function of humidity, […]

rats = conditions: rat, in vivo
Method: (§2) With regard to the toxicity, its oral single administration toxicity was 200 mg/kg or more, and serious side effects were not observed in rats by repeated oral administration toxicity test over 10 days and repeated intravenous injection toxicity test over 10 days.

[2] = in vivo
Method: as §2

[3] = target: calmodulin-dependent phosphodiesterase (PDE); assay: Calmodulin inhibition action (calmodulin-dependent phosphodiesterase inhibition); format: biochemical; conditions: CaM and CaM-PDE of bovine brain origin, [3H]-cGMP, 30° C., 10 minutes; read-out: PDE inhibition effect, IC50
dogs = assay: Actions upon hemodynamics and electrocardiogram; format: in vivo, dog
Method: (§3) Particularly serious actions upon hemodynamics and electrocardiogram were not observed in dogs, and significant central nervous inhibition actions were not observed in rhesus monkeys even when a dose of 10 mg/kg was administered by intravenous injection.

[4] = test system: rat microsphere cerebral embolus model; assay: Anti-edema effect in rat microsphere cerebral embolus model; format: in vivo; conditions: 8 hr, intravenous infusion, 24 hours after operation
Method: This test was carried out in accordance with the method of Nobutaka Demura et al. (Neuroscience Res., 17, 23-30 (1983)).
Under halothane anesthesia, a Slc;Wis rat (about 300 g) which has been treated with caudal vein cannulation in advance was subjected to neck incision to tear off the left side common carotid artery. Wing process palate artery and external carotid artery on the same side were also torn off and subjected to artery clipping. Carbon microspheres (50±10 μm in diameter) were suspended in 20% dextran and injected into the left side common carotid artery to effect dispersion of the microspheres in the left cerebral hemisphere via the left internal carotid artery, the common carotid artery was immediately clipped to stop bleeding from the microsphere-injected part, and then the artery clip was removed to restart blood circulation. Thereafter, each drug solution was continuously injected using an infusion pump from the catheter which has been inserted into caudal vein.
Each animal was sacrificed by decapitation 24 hours after the operation, and the brain was excised immediately after the decapitation to measure wet weights of both left and right hemispheres. Each tissue was then dried overnight at 150° C. to measure its dry weight and to calculate water content of each hemisphere.
As a control group, a vehicle group (20% dextran only) was arranged and treated in the same manner.

rhesus monkeys = assay: Central nervous inhibition actions; format: in vivo, rhesus monkey; conditions: 10 mg/kg intravenous injection
Method: as §3

[5] = test system: hippocampus CA1 nerve cells; assay: Changes in hippocampus nerve cells in cerebral ischemia model; format: in vivo; conditions: jird, 5 minutes cerebral ischemia, 100 mg/kg oral 1 hour after ischemia loading
Method: When transient cerebral ischemia is loaded on a jird, hippocampus nerve cells start to get necrosis several days thereafter, and such a change is called delayed nerve cell death. The following test was carried out in accordance with the method of T. Kirino (Brain Res., 239, 57-69 (1982)). That is, each jird was loaded with 5 minutes of cerebral ischemia and then sacrificed to count the number of nerve cells remained in the hippocampus CA1 region.

[6] = test system: mouse nitrogen-loaded hypoxia model; assay: Mouse nitrogen-loaded hypoxia model; format: in vivo; conditions: mice, 30 mg/kg oral, 60 minutes before nitrogen gas feeding
Method: This test was carried out in accordance with the method of Albert Wauquier et al. (Japan J. Pharmacol., 38, 1-7 (1985)).
A total of 9 to 10 mice were used in 1 group, and each animal 60 minutes after oral administration of a drug to be tested (30 mg/kg) was put into a transparent container (500 ml capacity) equipped with an air outlet and then the container was fed with nitrogen gas at a rate of 5.0 L/min. The period of time from the commencement of gas feeding until respiratory arrest was measured.

[7] = Storage stability under dry heating and wet heating conditions; format: physicochemical
Method: as §1

[8] = dry heating conditions (50° C., tightly sealed in a bottle, 1 month)
[9] = wet heating conditions (40° C., 75% humidity, 1 month)

COc1cc2c(CCN3CCN(c4cccc(Cl)c4C)CC3)nn(Cc3c[nH]cn3)c2cc1OC [Inventive Example 2, 3-[2-[4-(3-Chloro-2-methylphenyl)-1-piperazinyl]ethyl]-5,6-dimethoxy-1-(4-imidazolylmethyl)-1H-indazole 1.5-hydrochloride (anhydrous crystals)]
moisture absorption in response to environmental humidity ([1]; room temperature, anhydrate after removal of methanol, FIG. 1): absorb moisture in response to the environmental humidity

COc1cc2c(CCN3CCN(c4cccc(Cl)c4C)CC3)nn(Cc3c[nH]cn3)c2cc1OC [compound of the present invention, 3-[2-[4-(3-chloro-2-methylphenyl)-1-piperazinyl]ethyl]-5,6-dimethoxy-1-(4-imidazolylmethyl)-1H-indazole]
serious side effects (rats; iv): not observed
serious side effects (rats; po): not observed
oral single administration toxicity [2]: ≥ 200 mg/kg
IC50 [3]: 5.46 µM
particularly serious actions upon hemodynamics and electrocardiogram (dogs): not observed
Water content, Control Side (right hemisphere) ([4]; dose 1 mg/kg/hr): 78.8 ± 0.1%
Water content, Disease Side (left hemisphere) ([4]; dose 1 mg/kg/hr): 80.1 ± 0.4%
Water content, Control Side (right hemisphere) ([4]; dose 2 mg/kg/hr): 78.7 ± 0.1%
Water content, Disease Side (left hemisphere) ([4]; dose 2 mg/kg/hr): 79.8 ± 0.3%
significant central nervous inhibition actions (rhesus monkeys): not observed
protecting effect against nerve cell death [5]: distinct protecting effect
Hippocampus Nerve Cell Density ([5]; CA1 region): 131 ± 21.2 cells/mm
increasing ratio of time until respiratory arrest (control group defined as 100%) [6]: 15.1%

COc1cc2c(CCN3CCN(c4cccc(Cl)c4C)CC3)nn(Cc3c[nH]cn3)c2cc1OC [Inventive Example 3, 3-[2-[4-(3-Chloro-2-methylphenyl)-1-piperazinyl]ethyl]-5,6-dimethoxy-1-(4-imidazolylmethyl)-1H-indazole dihydrochloride 3.5-hydrate]
changes in powder X-ray diffraction pattern or detectable water content ([1]; relative humidity changed from about 20% to about 80% at 25° C., FIG. 2): did not show changes
changes in appearance [7, 8]: hardly found
changes in the content (determination by HPLC) [7, 8]: not found
changes in appearance [7, 9]: hardly found
changes in the content (determination by HPLC) [7, 9]: not found
